Measured values reported in PubChem BioAssay (NCI).
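Interpolation was linear, between the two tested concentrations surrounding the appropriate level; five concentrations were tested over 48 hours in 96-well plates. The concentration for 50% growth inhibition is given as GI50. TGI: concentration producing complete growth inhibition.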

Assays:
Experiment in all cases: growth of human tumour cells (NCI), 48 h
A498 renal = system: A498 renal
DU-145 prostate = system: DU-145 prostate
HS 578T breast = system: HS 578T breast
NCI-H23 lung = system: NCI-H23 lung
NCI-H522 lung = system: NCI-H522 lung
SNB-19 CNS = system: SNB-19 CNS
SNB-75 CNS = system: SNB-75 CNS
T-47D breast = system: T-47D breast

Row | SMILES | GI50 (A498 renal) [µM] | TGI (A498 renal) [µM] | GI50 (DU-145 prostate) [µM] | TGI (DU-145 prostate) [µM] | GI50 (HS 578T breast) [µM] | TGI (HS 578T breast) [µM] | GI50 (NCI-H23 lung) [µM] | TGI (NCI-H23 lung) [µM] | GI50 (NCI-H522 lung) [µM] | TGI (NCI-H522 lung) [µM] | GI50 (SNB-19 CNS) [µM] | TGI (SNB-19 CNS) [µM] | GI50 (SNB-75 CNS) [µM] | TGI (SNB-75 CNS) [µM] | GI50 (T-47D breast) [µM] | TGI (T-47D breast) [µM]
1 | O=C(N/N=C/c1ccc(O)cc1O)c1cccnc1 | 11.5 | 84.1 | 3.45 | > 100 | 7.26 | 82.1 | 5.92 | > 100 | 3.21 | > 100 | 5.8 | > 100 | 1.15 | 26.1 | 3.45 | 86
2 | O=C(CCN1CCOCC1)Nc1cccc(-n2cc(-c3ccncc3)c(-c3ccc(Cl)c(O)c3)n2)c1 | 1.52 | 5.48 | 2.49 | 11.7 | 3.17 | 25.8 | 3.04 | 18.6 | 0.448 | 5.4 | 4.87 | 22.6 | 0.825 | 3.3 | 1.74 | 9.75
3 | Cn1cc(-c2csc(-c3cn(C)c4ccc(F)cc34)n2)c2cnccc21 | 1.62 | 3.04 | 1.74 | 3.16 | 2.36 | 5.12 | 1.94 | 3.58 | 1.77 | 3.34 | 1.82 | 3.3 | 1.4 | 2.74 |  | 
4 | O=C1c2ccccc2C(=O)c2c(NCCN=Cc3ccccc3O)cccc21 | 1.87 | 6.67 | 2.22 | 7.66 | 1.72 | 4.88 | 12.4 | > 100 | 6.94 | > 25.6 | 4.31 | > 54.5 | 2.33 | 7.6 | 3.46 | > 47.1
5 | c1ccc(NCCSc2nc3ccccc3s2)cc1 |  | > 100 |  | > 100 |  | > 100 |  | > 100 |  | > 100 |  | > 100 |  | > 100 |  | > 100
6 | COc1ccc(-c2ccc(NNC(=O)c3ccc(F)cc3)nn2)cc1OC | > 100 | > 100 | > 100 | > 100 | 63.9 | > 100 | > 100 | > 100 | 54.3 | > 100 | > 100 | > 100 | 26.9 | > 100 | 28.1 | > 100
7 | c1ccc2c(c1)c1ccccc1c1ccccc21 | > 100 | > 100 | > 100 | > 100 | > 100 | > 100 | > 100 | > 100 | > 100 | > 100 | > 100 | > 100 | > 100 | > 100 | > 100 | > 100
8 | CN1C(NNC(=O)c2cccnc2)=NS(=O)(=O)c2cc(Cl)ccc21 | > 100 | > 100 | > 100 | > 100 | > 100 | > 100 | > 100 | > 100 | > 100 | > 100 | > 100 | > 100 | > 100 | > 100 | > 100 | > 100
9 | NC(=O)CNc1ccc([As]=[As]c2ccc(NCC(N)=O)cc2)cc1 (stereo unspecified) | 4.69 | 18 | 6.48 | 35 | 1.45 | 21.1 | 8.1 | 31.1 |  |  | 4.7 | 18.2 | 1.73 | 9.13 | 1.44 | 17.4
10 | O=[N+]([O-])c1ccc(Sc2c3ccccc3nc3ccccc23)cn1 |  | > 100 |  | 26.5 |  | 29.7 |  | > 47.8 |  | 10.8 |  | > 66.6 |  | > 63.4 |  | 19.9
11 | N#CC(C#N)=C1CCCOc2c1ccc1ccccc21 | 1.84 | 4.89 | > 100 | > 100 | 33.4 | > 100 | > 100 | > 100 | > 100 | > 100 | 94.3 | > 100 |  |  | > 100 | > 100
12 | CN(C)CCNc1nc2ccccc2c2c(=O)c3cc(F)ccc3sc12 |  |  | 1.77 | 3.21 |  |  | 1.79 | 3.26 | 1.86 | 3.79 |  |  | 1.45 | 2.8 |  | 
13 | COc1ccc2c(c1)C(C)Cc1c(ncnc1-n1cnc3ccccc31)N2C (stereo unspecified) | 0.234 | 10.2 | 0.439 | 10.3 | 0.535 | 37.2 | 0.44 | 18.2 | 0.254 | 0.744 | 0.695 | 27.5 |  |  | 0.432 | 64.6
14 | COc1ccc(-c2noc(N)c2-c2cc(OC)c3c(c2)OCO3)cc1 | 1.24 | 7.55 | 3.42 | > 90.9 | 2.61 | 24.4 | 3.17 | > 83.1 | 1.24 |  | 10.6 | > 100 | 1.74 | 7.03 | 3.61 | > 54.8
15 | Nc1c(C(=O)Nc2ccccc2Cl)sc2nc3c(cc12)C(=O)CCC3 | 0.229 | > 100 | 10.3 | > 100 | 3.56 | > 100 | 2.04 | > 100 | 0.777 | > 100 | 12.5 | > 100 | 2.46 | > 84 | > 40 | > 100
16 | COC(=O)[C@]12CC[C@@H](C)[C@H](C)[C@@H]1C1=CC[C@@H]3[C@@]4(C)C(C=O)=C[C@@](C)(COC(=O)c5ccco5)[C@@H]4[C@H](O)C[C@@]3(C)[C@]1(C)CC2 | 3.19 | 12.7 |  |  | 2.72 | 8.96 | 2.24 | 7.01 | 1.64 | 3.94 | 4.32 | 30.8 | 1.49 | 4.12 | 2.37 | 39.5
